According to patent publication US20260200939A1, “MOLECULAR GLUE DEGRADER COMPOUNDS AND USES THEREOF” (Novartis AG, priority 2022, published 2026):

Tests used:
[1] = target: T1, BRD4 long (Homo sapiens, UniProt O60885); assay: BRD4 (long) degradation assay, Western blotting; type: cell-based
T1 construct: endogenous in cells; host or cells: HEK293T
Method in brief: (§1)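 Cell lines were grown at 37° C with 5% CO2 (HEK293T and C33A in DMEM, A549 in F-12K, 22RV1, LNCaP and Mino in RPMI-1640, K562 and MV-4-11 in IMDM, all with 10% FBS). Lysates were BCA-normalized, then SDS/PAGE Western blots were probed with target-specific antibodies and read by IR680/IR800 fluorescent secondaries on Li-Cor.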

[2] = target: T2, BRD4 short (Homo sapiens, UniProt O60885); assay: BRD4 (short) degradation assay, Western blotting; type: cell-based
T2 construct: endogenous in cells; host or cells: HEK293T
Method in brief: as §1

[3] = first value of cell (long/short)
[4] = second value of cell (long/short)
[5] = first value of cell, range with lower bound in nM and upper bound in μM
[6] = second value of cell, range with lower bound in nM and upper bound in μM

Row | SMILES | DC50 [1, 3] [nM] | DC50 [2, 4] [nM] | DC50 [1, 5] [nM] | DC50 [2, 6] [nM]
1 | Cc1sc2c(c1C)C(c1ccc(Cl)cc1)=N[C@@H](CC(=O)N[C@H]1C[C@@H](NC(=O)/C=C/C(=O)c3ccc(=O)n(C)c3)C1)c1nnc(C)n1-2 [Compound 243, (E)-N-((1R,3s)-3-(2-((S)-4-(4-chlorophenyl)-2,3,9-trimethyl-6H-thieno[3,2-f][1,2,4]triazolo[4,3-a][1,4]diazepin-6-yl)acetamido)cyclobutyl)-4-(1-methyl-6-oxo-1,6-dihydropyridin-3-yl)-4-oxobut-2-enamide] | – | – | 100 to 1000 | 100 to 1000
2 | Cc1sc2c(c1C)C(c1ccc(Cl)cc1)=N[C@@H](CC(=O)N[C@H]1C[C@H](NC(=O)/C=C/C(=O)c3ccc(=O)n(C)c3)C1)c1nnc(C)n1-2 [Compound 244, (E)-N-((1S,3r)-3-(2-((S)-4-(4-chlorophenyl)-2,3,9-trimethyl-6H-thieno[3,2-f][1,2,4]triazolo[4,3-a][1,4]diazepin-6-yl)acetamido)cyclobutyl)-4-(1-methyl-6-oxo-1,6-dihydropyridin-3-yl)-4-oxobut-2-enamide] | – | 1000 | 100 to 1000 | –
3 | Cc1sc2c(c1C)C(c1ccc(Cl)cc1)=N[C@@H](CC(=O)N1CCN(C(=O)/C=C/C(=O)Nc3cccn(C)c3=O)CC1)c1nnc(C)n1-2 [Compound 247, (S,E)-4-(4-(2-(4-(4-chlorophenyl)-2,3,9-trimethyl-6H-thieno[3,2-f][1,2,4]triazolo[4,3-a][1,4]diazepin-6-yl)acetyl)piperazin-1-yl)-N-(1-methyl-2-oxo-1,2-dihydropyridin-3-yl)-4-oxobut-2-enamide] | – | – | 100 to 1000 | 100 to 1000
4 | COc1ccc2c(c1)CCN(C(=O)/C=C/C(=O)N1CCN(C(=O)C[C@@H]3N=C(c4ccc(Cl)cc4)c4c(sc(C)c4C)-n4c(C)nnc43)CC1)C2 [Compound 252, (S,E)-1-(4-(2-(4-(4-chlorophenyl)-2,3,9-trimethyl-6H-thieno[3,2-f][1,2,4]triazolo[4,3-a][1,4]diazepin-6-yl)acetyl)piperazin-1-yl)-4-(6-methoxy-3,4-dihydroisoquinolin-2(1H)-y1)but-2-ene-1,4-dione] | > 5000 | > 5000 | – | –
5 | Cc1sc2c(c1C)C(c1ccc(Cl)cc1)=N[C@@H](CC(=O)NC1CC(NC(=O)/C=C/C(=O)N3CC4(COC4)C3)C1)c1nnc(C)n1-2 (stereo partly drawn) [Compound 253, (S,E)-N-(3-(2-(4-(4-chlorophenyl)-2,3,9-trimethyl-6H-thieno[3,2-f][1,2,4]triazolo[4,3-a][1,4]diazepin-6-yl)acetamido)cyclobutyl)-4-oxo-4-(2-oxa-6-azaspiro[3.3]heptan-6-yl)but-2-enamide] | > 5000 | > 5000 | – | –
6 | COc1ccc(/C=C/S(=O)(=O)N2CCN(C(=O)C[C@@H]3N=C(c4ccc(Cl)cc4)c4c(sc(C)c4C)-n4c(C)nnc43)CC2)cc1 [Compound 279, (S,E)-2-(4-(4-chlorophenyl)-2,3,9-trimethyl-6H-thieno[3,2-f][1,2,4]triazolo[4,3-a][1,4]diazepin-6-yl)-1-(4-((4-methoxystyryl)sulfonyl)piperazin-1-yl)ethan-1-one] | > 5000 | > 5000 | – | –
7 | Cc1sc2c(c1C)C(c1ccc(Cl)cc1)=N[C@@H](CC(=O)N[C@H]1C[C@H](NC(=O)/C=C/C(=O)c3ccc(Cl)cc3Cl)C1)c1nnc(C)n1-2 [Compound 281, (E)-N-((1S,3r)-3-(2-((S)-4-(4-chlorophenyl)-2,3,9-trimethyl-6H-thieno[3,2-f][1,2,4]triazolo[4,3-a][1,4]diazepin-6-yl)acetamido)cyclobutyl)-4-(2,4-dichlorophenyl)-4-oxobut-2-enamide] | – | – | 100 to 1000 | 100 to 1000
8 | Cc1sc2c(c1C)C(c1ccc(Cl)cc1)=N[C@@H](CC(=O)N[C@H]1C[C@H](NC(=O)/C=C/C(=O)c3cc(Cl)ccc3Cl)C1)c1nnc(C)n1-2 [Compound 288, (E)-N-((1S,3r)-3-(2-((S)-4-(4-chlorophenyl)-2,3,9-trimethyl-6H-thieno[3,2-f][1,2,4]triazolo[4,3-a][1,4]diazepin-6-yl)acetamido)cyclobutyl)-4-(2,5-dichlorophenyl)-4-oxobut-2-enamide] | – | – | 100 to 1000 | 100 to 1000

The remaining lines, values ahead:

Row | DC50 [1, 3] [nM] | DC50 [2, 4] [nM] | DC50 [1, 5] [nM] | DC50 [2, 6] [nM] | SMILES
9 | 80 | 40 | – | – | Cc1sc2c(c1C)C(c1ccc(Cl)cc1)=N[C@@H](CC(=O)N1CCN(C(=O)/C=C/C(=O)c3ccc(=O)n(C)c3)CC1)c1nnc(C)n1-2 [Compound 242, (S,E)-1-(4-(2-(4-(4-chlorophenyl)-2,3,9-trimethyl-6H-thieno[3,2-f][1,2,4]triazolo[4,3-a][1,4]diazepin-6-yl)acetyl)piperazin-1-yl)-4-(1-methyl-6-oxo-1,6-dihydropyridin-3-y1)but-2-ene-1,4-dione]
10 | > 5000 | > 5000 | – | – | Cc1sc2c(c1C)C(c1ccc(Cl)cc1)=N[C@@H](CC(=O)N1CCN(C(=O)/C=C/C(=O)N3CCN(C)CC3)CC1)c1nnc(C)n1-2 [Compound 245, (S,E)-1-(4-(2-(4-(4-chlorophenyl)-2,3,9-trimethyl-6H-thieno[3,2-f][1,2,4]triazolo[4,3-a][1,4]diazepin-6-yl)acetyl)piperazin-1-yl)-4-(4-methylpiperazin-1-yl)but-2-ene-1,4-dione]
11 | > 5000 | – | – | 100 to 1000 | COc1ccc(NC(=O)/C=C/C(=O)N2CCN(C(=O)C[C@@H]3N=C(c4ccc(Cl)cc4)c4c(sc(C)c4C)-n4c(C)nnc43)CC2)cc1 [Compound 246, (S,E)-4-(4-(2-(4-(4-chlorophenyl)-2,3,9-trimethyl-6H-thieno[3,2-f][1,2,4]triazolo[4,3-a][1,4]diazepin-6-yl)acetyl)piperazin-1-yl)-N-(4-methoxyphenyl)-4-oxobut-2-enamide]
12 | > 5000 | > 5000 | – | – | Cc1sc2c(c1C)C(c1ccc(Cl)cc1)=N[C@@H](CC(=O)N1CCN(C(=O)/C=C/C(=O)N3CCOCC3)CC1)c1nnc(C)n1-2 [Compound 248, (S,E)-1-(4-(2-(4-(4-chlorophenyl)-2,3,9-trimethyl-6H-thieno[3,2-f][1,2,4]triazolo[4,3-a][1,4]diazepin-6-yl)acetyl)piperazin-1-yl)-4-morpholinobut-2-ene-1,4-dione]
13 | > 5000 | > 5000 | – | – | Cc1sc2c(c1C)C(c1ccc(Cl)cc1)=N[C@@H](CC(=O)N[C@H]1C[C@@H](NC(=O)/C=C/C(=O)N3CCOCC3)C1)c1nnc(C)n1-2 [Compound 249, (E)-N-((1R,3s)-3-(2-((S)-4-(4-chlorophenyl)-2,3,9-trimethyl-6H-thieno[3,2-f][1,2,4]triazolo[4,3-a][1,4]diazepin-6-yl)acetamido)cyclobutyl)-4-morpholino-4-oxobut-2-enamide]
14 | > 5000 | > 5000 | – | – | Cc1sc2c(c1C)C(c1ccc(Cl)cc1)=N[C@@H](CC(=O)N[C@H]1C[C@H](NC(=O)/C=C/C(=O)N3CCOCC3)C1)c1nnc(C)n1-2 [Compound 250, (E)-N-((1S,3r)-3-(2-((S)-4-(4-chlorophenyl)-2,3,9-trimethyl-6H-thieno[3,2-f][1,2,4]triazolo[4,3-a][1,4]diazepin-6-yl)acetamido)cyclobutyl)-4-morpholino-4-oxobut-2-enamide]
15 | > 5000 | 10 to 100 | – | – | COc1ccc2c(c1)CCCN2C(=O)/C=C/C(=O)N1CCN(C(=O)C[C@@H]2N=C(c3ccc(Cl)cc3)c3c(sc(C)c3C)-n3c(C)nnc32)CC1 [Compound 251, (S,E)-1-(4-(2-(4-(4-chlorophenyl)-2,3,9-trimethyl-6H-thieno[3,2-f][1,2,4]triazolo[4,3-a][1,4]diazepin-6-yl)acetyl)piperazin-1-yl)-4-(6-methoxy-3,4-dihydroquinolin-1(2H)-yl)but-2-ene-1,4-dione]
16 | 10 to 100 | 10 to 100 | – | – | Cc1sc2c(c1C)C(c1ccc(Cl)cc1)=N[C@@H](CC(=O)N[C@H]1C[C@@H](NC(=O)/C=C/C(=O)C(C)(C)C)C1)c1nnc(C)n1-2 [Compound 277, (E)-N-((1R,3s)-3-(2-((S)-4-(4-chlorophenyl)-2,3,9-trimethyl-6H-thieno[3,2-f][1,2,4]triazolo[4,3-a][1,4]diazepin-6-yl)acetamido)cyclobutyl)-5,5-dimethyl-4-oxohex-2-enamide]
17 | 10 to 100 | 10 to 100 | – | – | Cc1sc2c(c1C)C(c1ccc(Cl)cc1)=N[C@@H](CC(=O)N[C@H]1C[C@H](NC(=O)/C=C/C(=O)C(C)(C)C)C1)c1nnc(C)n1-2 [Compound 278, (E)-N-((1S,3r)-3-(2-((S)-4-(4-chlorophenyl)-2,3,9-trimethyl-6H-thieno[3,2-f][1,2,4]triazolo[4,3-a][1,4]diazepin-6-yl)acetamido)cyclobutyl)-5,5-dimethyl-4-oxohex-2-enamide]
18 | 1000 to 5000 | 1000 to 5000 | – | – | Cc1sc2c(c1C)C(c1ccc(Cl)cc1)=N[C@@H](CC(=O)N[C@H]1C[C@H](NC(=O)/C=C/C(=O)c3cccc(Cl)c3Cl)C1)c1nnc(C)n1-2 [Compound 287, (E)-N-((1S,3r)-3-(2-((S)-4-(4-chlorophenyl)-2,3,9-trimethyl-6H-thieno[3,2-f][1,2,4]triazolo[4,3-a][1,4]diazepin-6-yl)acetamido)cyclobutyl)-4-(2,3-dichlorophenyl)-4-oxobut-2-enamide]
